Where two headings read alike, the source gives them in different places.
Legend:
[1] = water solubility; format: physicochemical
Method: Despite the high water solubility of sodium ditriazoate and sodium methoxy coumarin (>1 mg/ml), WIN 67638 and WIN 67591 are sparingly soluble in water with solubility less than 0.01 mg/mL.
By water soluble is meant greater than 1 mg/ml.

[2] = mortality in biodistribution study in colon 33 tumor bearing mice; format: in vivo; settings: iv 0.2 ml/animal; during 48 hours treatment
Method: (§1) A nanoparticulate formulation of 5% w/v […] in 3% polyoctylphenol (Tyloxopol) was prepared by ten days roller milling following the procedures similar to that of Example 9.
(§2) A biodistribution study of the treatment of Example 5 was conducted by iv injections into colon 33 tumor bearing mice at 0.2 ml/animal. […] No dead mice were reported during the 48 hours treatment.

[3] = tested on: axillary nodes; assay: lymphography, CT imaging of axillary nodes after subcutaneous injection; format: in vivo, New Zealand White Rabbits; settings: 4 hours post injection, single 0.5 ml subcutaneous dose, dorsal side of forepaw
Method: (§3) 0.75 g of WIN 67591, as prepared in Example 1, was added to approximately 30 ml of 1.1 mm zirconium oxide beads and 10 ml of a solution which was 2% Tetronic 908 (wt/vol %) and 1% SA9OHCO (wt/vol %). SA9OHCO is a small sugar surfactant. The suspension was roller milled in a 60 ml jar at approximately 100 rpm for 7 days. At the end of this time, the average particle size was determined to be 192 nm by light scattering using a Zetasizer III. The suspension was removed from the beads and sent for subcutaneous injection as a lymphographic agent. CT imaging was carried out using a GE Model 9800 Instrument.

[4] = biodistribution study, circulation in blood of colon 33 tumor bearing mice; format: in vivo; settings: Example 7, i.v. 0.2 ml/animal
Method: as §1, §2
(§4) […] as prepared in Example 1 at 5% W/V was formulated with 3% Tyloxapol by roller milling for ten days following the procedures similar to that of work example 3 and 4. The average particle size by PCS was 302 nm. The formulation was administered i.v. to colon 33 bearing mice at 0.2 ml/animal. […] As high as 700 ug (0.7% of the total dosage) WIN 67591 remained circulating in the blood 1 hour post injection. WIN 67591 was detected in the tumor tissue as early as 5 minute post injection. The drug concentration reached a maximum at 90 ug/g of tumor tissue at 6 hour post injection and maintained at a concentration of 60 ug/g in the tumor tissue for 48 hours.

[5] = average particle size of roller-milled nanoparticle suspension (light scattering / PCS); format: physicochemical
Method: as §3
(§5) 2.85 g of WIN 67591 (19.2%) were added to 30 ml of a solution of 5.2% BASF NF Grade Tetronic 908 (wt/vol %) in sterilized distilled water and approximately 100 ml of 1.1 mm zirconium silicate beads in a 250 ml bottle. The bottle was capped and rolled at approximately 140 rpm for 7 days at which time the average particle size was determined to be 173 nm. The suspension was separated from the beads and sent for intravenous injection as a vascular x-ray contrast agent. New Zealand White rabbits were used for this study and were injected via the ear vein at a dose of 3 ml/kg. Three animals were studied for times 5, 15, 30, 60, 120 min. and 24 hours. CT scanning was carried out using a Toshiba Model TCT-900S/x at the times indicated.
as §4

[6] = tumor tissue concentration after iv injection in mice bearing colon 33 tumor; format: in vivo; settings: mouse, colon 33 tumor tissue, iv; for Cmax at 6 h: read-out: maximum drug concentration in tumor tissue; for Tmax: read-out: time of maximum drug concentration in tumor tissue
Method: as §1
(§6) The formulation was administered to mice bearing colon 33 tumor by iv injection. Analysis of the tumor tissue indicated the presence of WIN 67591 in the tumor tissue as soon as 5 minutes after injection. The drug concentration reached a maximum of 90 μg/g of tumor tissue at 6 hours and maintained at a concentration of 60 μg/g of tumor tissue for 42 hours.
as §4

[7] = tested on: colon 33 tumor tissue; assay: as above; format: in vivo
Method: as §1, §6, §4

[8] = blood pool imaging, vascular x-ray contrast by CT after intravenous injection; format: in vivo, New Zealand White rabbits; settings: 3 ml/kg via ear vein, CT at 5, 15, 30, 60, 120 min and 24 hours
Method: as §5

With sodium methoxy coumarin the water solubility ([1]; water) was greater than 1 mg/mL.
With `COc1cc2oc(=O)cc(COC(=O)c3c(I)c(NC(C)=O)c(I)c(NC(C)=O)c3I)c2cc1OC` [WIN 67591] the dead mice [2] was “No dead mice”, the “enhancement of the axillary nodes (CT)” value [3] was “clear enchancement of the axillary nodes” and the “amount remaining circulating in the blood” value ([4]; 1 hour post injection) was 700 µg. The “share of total dosage remaining circulating in the blood” value ([4]; 1 hour post injection) was 0.7%, the blood circulation [4] was “prolonged blood circulation” and the average particle size ([5]; 2% Tetronic 908 and 1% SA9OHCO, roller milled 7 days, light scattering, Zetasizer III) was 192 nm. For the same compound, the “average particle size by PCS” value ([5]; 5% W/V with 3% Tyloxapol, roller milling ten days) was 302 nm, the average particle size ([5]; 5.2% Tetronic 908 in sterilized distilled water, rolled 7 days) was 173 nm and the Cmax at 6 h ([6]; Example 7, at 6 hour post injection, i.v. 0.2 ml/animal) was 90000 ng/g. It also gave a concentration at 48 h ([6]; Example 7, for 48 hours, i.v. 0.2 ml/animal, read-out: concentration maintained in tumor tissue) of 60000 ng/g, a Tmax ([6]; Example 7, i.v. 0.2 ml/animal) of 6 h and a Cmax at 6 h ([6]; Example 5, at 6 hours) of 90000 ng/g. The concentration at 42 h ([6]; Example 5, for 42 hours, read-out: concentration maintained in tumor tissue) was 60000 ng/g, the Tmax ([6]; Example 5) was 6 h and the “time for which tumor concentration of 60 μg/g was maintained” value ([7]; Example 5, iv) was 42 h. For the same compound, the “tumor tissue concentration versus average therapeutic dosage of oncologics” value ([7]; Example 5, iv) was “exceeds the average therapeutic dosage of oncologics”, the “time at which drug is present in tumor tissue” value ([7]; Example 5, iv, 5% w/v in 3% Tyloxapol) was no more than 5 min and the “time at which drug is detected in tumor tissue” value ([7]; Example 7, HPLC, i.v. 0.2 ml/animal) was no more than 5 min. For the same compound, the “time for which tumor concentration of 60 ug/g was maintained” value ([7]; Example 7, i.v. 0.2 ml/animal) was 48 h, the solubility ([1]; in water, conjugates, read-out: solubility in water) was less than 10 µg/mL and the “prolonged vascular residence time” value [8] was greater than 2 h.
Compound `CC(=O)Nc1c(I)c(NC(C)=O)c(I)c(C(=O)O)c1I` [sodium ditriazoate, sodium diatrizoate, reference compound] has a solubility ([1]; in water, starting materials, read-out: water solubility) greater than 1000 µg/mL.
`COc1ccc2c(COC(=O)c3c(I)c(NC(C)=O)c(I)c(NC(C)=O)c3I)cc(=O)oc2c1` [WIN 67638] gave a solubility ([1]; water) of less than 10 µg/mL.
